“Also recorded” adds a separate entry of the source.
How the values were obtained:
[1] = tested on: SKBR-3; test: MTT assay, SKBR-3; format: cell-based, human; details: for IC50: SK-BR-3, MTT assay, SKBR-3 human breast adenocarcinoma, value (SD); for SKBR-3 SI: Selectivity Index = IC50 HDF / IC50 SKBR-3
Procedure: (§1) The cytotoxic activity of oleanolic acid (mother compound, 1, Figure 2) and its 14 derivatives (3a–3n, Figure 2) was tested in vitro using the standard MTT method based on viability assay, e.g., [44] against carcinoma cell lines: SKBR-3, SKOV-3, PC-3, U-87, and one normal cell line: HDF.
(§2) Human cancer cells: SKBR-3 and SKOV-3 were cultured in McCoy’s Modified Medium; PC-3 was cultured in an F-12K medium; U-87 was cultured in EMEM medium; HDF was cultured in Fibroblast Basal Medium. Each medium was supplemented with 10% fetal bovine serum, 1% L- glutamine, and 1% penicillin/streptomycin solution. The cell lines were kept in an incubator at 37 °C. All the cell lines and mediums were obtained from the American Type Culture Collection (ATCC) supplied by LGC-Standards (Lomianki, Poland).
(§3) The MTT assay was conducted as described earlier, e.g., [44]. In short, this method is based on the reaction between mitochondria enzymes (dehydrogenases) of tested cell lines and 3-(4,5-dimethylthiazol-2-yl)-2,5-diphenyltetrazolium bromide (MTT). The final product of this reaction gives violet formazan crystals. The number of live cells is proportional to the amount of formazan and is represented by the violet dye reagent. The details of the experiments are given in [44].

[2] = tested on: SKOV-3; test: MTT assay, SKOV-3; format: cell-based, human; details: for IC50: SK-OV-3, MTT assay, SKOV-3 human ovarian cystadenocarcinoma, value (SD); for SKOV-3 SI: Selectivity Index = IC50 HDF / IC50 SKOV-3
Procedure: as §1, §2, §3

[3] = tested on: PC-3; test: MTT assay, PC-3; format: cell-based, human; details: for IC50: MTT assay, PC-3 human prostate carcinoma, value (SD), read-out: B IC50 (SD); for B SI: Selectivity Index = IC50 HDF / IC50 of PC-3
Procedure: as §1, §2, §3

[4] = tested on: U-87; test: MTT assay, U-87; format: cell-based, human; details: for U-87 SI: Selectivity Index = IC50 HDF / IC50 U-87; for IC50: U-87 MG, MTT assay, U-87 human glioblastoma, value (SD)
Procedure: as §1, §2, §3

[5] = tested on: HDF; test: MTT assay, HDF normal cell line; format: cell-based; details: Homo sapiens, value (SD)
Procedure: as §1, §2, §3

[6] = Solubility in ethanol observed at crystallization; format: physicochemical; details: room temperature
[7] = design: method as in PMID 39000101, PMID 39125028; details: previously analyzed derivatives; cited from earlier work
[8] = tested on: SKBR-3, SKOV-3, PC-3, and U-87 cancer cell lines; test: MTT assay, four cancer cell lines taken together; format: cell-based, human; details: MTT, across SKBR-3, SKOV-3, PC-3, U-87
Procedure: as §1, §2, §3

[9] = CUPRAC antioxidant assay; details: Figure 3
Text: (§4) The results of the antioxidant activity of oleanolic acid (1) and Acetylated Oleanolic Acid Dimers (AcOADs) 3a–3n evaluated with CUPRAC and DPPH assays are given in Figure 3. The results are presented as % inhibition of the copper(II) ions and Trolox equivalent (blue bars) calculated from the standard curve, presented in the Supplementary Materials (Supplementary Materials S02, Figure S1) and as % inhibition of the DPPH radical and Trolox equivalent (pink bars), calculated from the standard curve presented in the Supplementary Materials (Supplementary Materials S02, Figure S2).
(§5) The CUPRAC reagent (7.5 mM ethanolic 96% neocuproine solution, 10 mM CuCl2 × H2O solution, and an ammonium acetate buffer of pH 7.0) and DPPH reagent (2,2-diphenyl-1-picrylhydrazyl 0.2 mM solution) were applied.
(§6) The DPPH assay relies on the ability of an antioxidant to donate a hydrogen atom or an electron to the stable DPPH radical, resulting in its reduction and subsequent color change. In contrast, the CUPRAC method measures the reducing power of a sample by quantifying its ability to convert the Cu-neocuproine reagent complex into the Cu(I) form. The results are presented as % inhibition of the copper(II) ions and Trolox equivalent (blue bars) calculated from the standard curve (Supplementary Materails S02, Figure S1) and as % inhibition of the DPPH radical and Trolox equivalent (pink bars), calculated from the standard curve (Supplementary Materials S02, Figure S2). The details of the experiments are given in [46].

[10] = DPPH antioxidant assay; details: Figure 3
Text: as §4, §5, §6

[11] = design: method as in PMID 39000101, PMID 39125028; details: previously analyzed derivatives; cited from earlier work; remark: listed apart in the source

| IC50 [1] [µM] | IC50 [2] [µM] | IC50 [3] [µM] | IC50 [4] [µM] | IC50 ([8]; Homo sapiens) [µM] | SMILES | SKBR-3 SI [1] | SKOV-3 SI [2] | B SI [3] | U-87 SI [4] | IC50 [5] [µM] | CUPRAC activity (in words), previous analysis [7] | CUPRAC activity (in words) [9] | other results |
| --- | --- | --- | --- | --- | --- | --- | --- | --- | --- | --- | --- | --- | --- |
| 9.69 | 10.2 | 9.49 | 10.2 |  | CC(=O)OC1CCC2(C)C(CCC3(C)C2CC=C2C4CC(C)(C)CCC4(C(=O)OCCCCCCCCCCCCOC(=O)C45CCC(C)(C)CC4C4=CCC6C7(C)CCC(OC(C)=O)C(C)(C)C7CCC6(C)C4(C)CC5)CCC23C)C1(C)C (stereo not shown) [Compound 3n] | 1.52 | 1.43 | 1.55 | 1.45 | 14.7 |  |  | solubility in ethanol [6]: well soluble |
|  |  |  |  |  | CC1(C)CCC2(C(=O)OCCCCCCCCCCCOC(=O)C34CCC(C)(C)CC3C3=CCC5C6(C)CCC(O)C(C)(C)C6CCC5(C)C3(C)CC4)CCC3(C)C(=CCC4C5(C)CCC(O)C(C)(C)C5CCC43C)C2C1 (stereo not shown) [Compound 2m] |  |  |  |  |  | high CUPRAC values |  |  |
|  |  |  |  |  | CC1(C)CCC2(C(=O)OCCCCCCCCOC(=O)C34CCC(C)(C)CC3C3=CCC5C6(C)CCC(O)C(C)(C)C6CCC5(C)C3(C)CC4)CCC3(C)C(=CCC4C5(C)CCC(O)C(C)(C)C5CCC43C)C2C1 (stereo not shown) [Compound 2j] |  |  |  |  |  | high CUPRAC values |  |  |
|  |  |  |  |  | CC1(C)CCC2(C(=O)OCCCCCOC(=O)C34CCC(C)(C)CC3C3=CCC5C6(C)CCC(O)C(C)(C)C6CCC5(C)C3(C)CC4)CCC3(C)C(=CCC4C5(C)CCC(O)C(C)(C)C5CCC43C)C2C1 (stereo not shown) [Compound 2g] |  |  |  |  |  | high CUPRAC values |  |  |
| 2.97 | 3.04 | 3.12 | 3.1 | 2.5 to 4.5 | CC(=O)OC1CCC2(C)C(CCC3(C)C2CC=C2C4CC(C)(C)CCC4(C(=O)OCCOC(=O)C45CCC(C)(C)CC4C4=CCC6C7(C)CCC(OC(C)=O)C(C)(C)C7CCC6(C)C4(C)CC5)CCC23C)C1(C)C (stereo not shown) [Compound 3b] | 2.37 | 2.32 | 2.26 | 2.27 | 7.05 |  | highest CUPRAC activity; also recorded: high CUPRAC activity | DPPH activity (in words) [10]: low DPPH activity |
|  |  |  |  |  | CC1(C)CCC2(C(=O)OCOC(=O)C34CCC(C)(C)CC3C3=CCC5C6(C)CCC(O)C(C)(C)C6CCC5(C)C3(C)CC4)CCC3(C)C(=CCC4C5(C)CCC(O)C(C)(C)C5CCC43C)C2C1 (stereo not shown) [Compound 2a] |  |  |  |  |  | lower CUPRAC activity |  | DPPH activity (in words), previous analysis [11]: high DPPH activity |
| 1.78 | 2.31 | 1.76 | 1.83 | ~2 | CC(=O)OC1CCC2(C)C(CCC3(C)C2CC=C2C4CC(C)(C)CCC4(C(=O)OCCCCCCCCCCCOC(=O)C45CCC(C)(C)CC4C4=CCC6C7(C)CCC(OC(C)=O)C(C)(C)C7CCC6(C)C4(C)CC5)CCC23C)C1(C)C (stereo not shown) [Compound 3m] | 2.59 | 2.00 | 2.62 | 2.52 | 4.62 |  | highest CUPRAC activity | IC50 [8]: ≤ 2 µM; solubility in ethanol [6]: well soluble |
| 2.04 |  | 2.26 | 2.03 | ~2 | CC(=O)OC1CCC2(C)C(CCC3(C)C2CC=C2C4CC(C)(C)CCC4(C(=O)OCOC(=O)C45CCC(C)(C)CC4C4=CCC6C7(C)CCC(OC(C)=O)C(C)(C)C7CCC6(C)C4(C)CC5)CCC23C)C1(C)C (stereo not shown) [Compound 3a] |  |  |  |  | 6.63 |  | moderate CUPRAC activity | DPPH activity (in words) [10]: higher antioxidant activity than OA; also recorded: high DPPH activity; melting point: 286 to 288 °C |
|  |  |  |  |  | CC1(C)CCC2(C(=O)OCCCCCCCOC(=O)C34CCC(C)(C)CC3C3=CCC5C6(C)CCC(O)C(C)(C)C6CCC5(C)C3(C)CC4)CCC3(C)C(=CCC4C5(C)CCC(O)C(C)(C)C5CCC43C)C2C1 (stereo not shown) [Compound 2i] |  |  |  |  |  | high CUPRAC values |  |  |
